For one data set, the target named is Dopamine-D2 (Homo sapiens, UniProt P14416). The data set is described as follows: In vitro receptor affinity, Dopamine-D2. In kind it is binding. As for the experimental part:
(§1) The binding data collected in the table below (Example 5: pharmacological test results) were either obtained by CEREP (128, rue Danton, 92500 Rueil-Malmaison, France) or at Solvay Pharmaceuticals B.V. (C. J. van Houtenlaan 36, 1381 CP Weesp, The Netherlands), using well documented standard procedures. The affinities for dopamine-D2 and 5-HT1A receptors for instance, was measured as described by Creese I, Schneider R and Snyder S H, [^3H]-Spiroperidol labels dopamine receptors in rat pituitary and brain, Eur J Pharmacol […], 46: 377-381 and Gozlan H, El Mestikawy S, Pichat L, Glowinsky J and Hamon M, 1983, Identification of presynaptic serotonin autoreceptors using a new ligand ^3H-PAT, Nature 1983, 305: 140-142.

A short description of data set [1]: Plasma levels of SLV308 and its N-oxide after oral dosing. The settings on record: after oral administration; rats. Type of data set: in vivo. An excerpt: These findings were corroborated by measurements of plasma levels of SLV308 and its N-oxide after oral dosing with SLV308 and the N-oxide.
In a further data set the target is μ-opiate (Rattus norvegicus, UniProt P33535). The data set is described as follows: In vitro receptor affinity, μ-opiate. In kind it is binding. As for the experimental part: as §1
Chain of μ-opiate (P33535 whole entry): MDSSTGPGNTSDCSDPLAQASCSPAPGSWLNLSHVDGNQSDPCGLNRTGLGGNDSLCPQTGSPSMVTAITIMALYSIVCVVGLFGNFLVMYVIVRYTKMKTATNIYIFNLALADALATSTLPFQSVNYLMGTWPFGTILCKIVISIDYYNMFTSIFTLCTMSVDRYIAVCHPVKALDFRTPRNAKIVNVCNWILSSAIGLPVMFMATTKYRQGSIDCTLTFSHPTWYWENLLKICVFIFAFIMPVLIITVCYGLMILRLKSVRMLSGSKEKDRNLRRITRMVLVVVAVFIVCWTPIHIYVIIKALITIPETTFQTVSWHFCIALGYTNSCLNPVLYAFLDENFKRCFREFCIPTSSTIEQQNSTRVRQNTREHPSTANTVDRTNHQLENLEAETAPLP
The target in a further data set is Dopamine-D4 (Homo sapiens, UniProt P21917). In words: In vitro receptor affinity, Dopamine-D4. In kind it is binding. On the procedure:
as §1

For another data set, the target named is Dopamine-D1 (Homo sapiens, UniProt P21728). In words: In vitro receptor affinity, Dopamine-D1. Type of data set: binding. As for the experimental part:
as §1

The target of another data set is κ-opiate (Rattus norvegicus, UniProt P34975). In words: In vitro receptor affinity, κ-opiate. Type of data set: binding. On the procedure:
as §1

For data set [2], the target named is T1, Human dopamine-D3 receptor (Homo sapiens, UniProt P35462).
T1 construct: expressed in transfected cells
T1 sequence (P35462 whole entry): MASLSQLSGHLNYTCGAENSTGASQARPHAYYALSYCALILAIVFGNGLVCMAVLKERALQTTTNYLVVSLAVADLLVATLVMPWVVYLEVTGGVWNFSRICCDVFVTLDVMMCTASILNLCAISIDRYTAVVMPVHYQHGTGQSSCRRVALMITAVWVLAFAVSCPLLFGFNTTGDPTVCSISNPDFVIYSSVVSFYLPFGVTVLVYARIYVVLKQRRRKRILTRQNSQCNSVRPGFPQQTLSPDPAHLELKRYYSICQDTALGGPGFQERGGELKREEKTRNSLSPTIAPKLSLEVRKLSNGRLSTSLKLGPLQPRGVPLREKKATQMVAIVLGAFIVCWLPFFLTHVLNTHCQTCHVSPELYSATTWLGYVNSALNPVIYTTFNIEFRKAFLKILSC
The data set is described as follows: In vitro functional receptor activity. Type of data set: cell-based.

Another data set deals with 5-HT2C (Homo sapiens, UniProt P28335). The data set is described as follows: In vitro receptor affinity, 5-HT2C. In kind it is binding. On the procedure: as §1
Chain of 5-HT2C (P28335 33-458): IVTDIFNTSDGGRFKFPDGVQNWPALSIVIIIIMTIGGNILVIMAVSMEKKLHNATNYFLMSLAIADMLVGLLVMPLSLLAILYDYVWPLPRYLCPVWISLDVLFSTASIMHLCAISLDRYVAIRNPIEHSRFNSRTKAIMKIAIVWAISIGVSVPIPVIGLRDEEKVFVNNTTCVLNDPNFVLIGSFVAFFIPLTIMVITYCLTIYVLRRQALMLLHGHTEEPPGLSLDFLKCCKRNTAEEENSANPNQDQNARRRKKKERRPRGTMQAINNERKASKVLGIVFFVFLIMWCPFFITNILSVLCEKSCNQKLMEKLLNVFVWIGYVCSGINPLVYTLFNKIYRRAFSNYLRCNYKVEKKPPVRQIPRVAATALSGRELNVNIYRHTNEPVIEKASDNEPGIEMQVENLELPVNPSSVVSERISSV
For data set [3], the system named is receptors for which the parent compound showed a high affinity. In words: In vitro screening of the N-oxide metabolite (receptor affinity overall). In kind it is binding. To be noted: affinity very low or below the detection limit.
Description: In drug development, metabolites are routinely investigated for activity, toxicity, etc. […] These findings confirmed that in this case one of the most common situations with an N-oxide had occurred: metabolic deactivation.
as §1

A further data set addresses α1A-adrenergic (Rattus norvegicus, UniProt P43140). The data set is described as follows: In vitro receptor affinity, α1A-adrenergic. In kind it is binding. On the procedure: as §1
A further data set addresses 5-HT1B (Rattus norvegicus, UniProt P28564). The data set is described as follows: In vitro receptor affinity, 5-HT1B. Type of data set: binding. As for the experimental part:
as §1

pEC50, pKi: −log10 of the molar value. Some results are limits rather than exact numbers.

Chain of Dopamine-D2 (P14416 whole entry): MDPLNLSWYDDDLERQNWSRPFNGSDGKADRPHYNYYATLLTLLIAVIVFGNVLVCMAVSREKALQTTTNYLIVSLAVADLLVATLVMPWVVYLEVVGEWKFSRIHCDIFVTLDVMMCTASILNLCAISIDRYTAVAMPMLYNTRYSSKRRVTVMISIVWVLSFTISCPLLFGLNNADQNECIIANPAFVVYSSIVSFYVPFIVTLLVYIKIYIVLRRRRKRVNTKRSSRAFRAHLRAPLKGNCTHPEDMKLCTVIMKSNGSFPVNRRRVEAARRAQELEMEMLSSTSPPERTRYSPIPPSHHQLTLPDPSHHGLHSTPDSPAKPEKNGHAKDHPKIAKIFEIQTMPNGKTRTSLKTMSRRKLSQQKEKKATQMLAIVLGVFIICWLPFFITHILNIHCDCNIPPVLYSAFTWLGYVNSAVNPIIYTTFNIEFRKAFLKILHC
Chain of Dopamine-D4 (P21917 whole entry): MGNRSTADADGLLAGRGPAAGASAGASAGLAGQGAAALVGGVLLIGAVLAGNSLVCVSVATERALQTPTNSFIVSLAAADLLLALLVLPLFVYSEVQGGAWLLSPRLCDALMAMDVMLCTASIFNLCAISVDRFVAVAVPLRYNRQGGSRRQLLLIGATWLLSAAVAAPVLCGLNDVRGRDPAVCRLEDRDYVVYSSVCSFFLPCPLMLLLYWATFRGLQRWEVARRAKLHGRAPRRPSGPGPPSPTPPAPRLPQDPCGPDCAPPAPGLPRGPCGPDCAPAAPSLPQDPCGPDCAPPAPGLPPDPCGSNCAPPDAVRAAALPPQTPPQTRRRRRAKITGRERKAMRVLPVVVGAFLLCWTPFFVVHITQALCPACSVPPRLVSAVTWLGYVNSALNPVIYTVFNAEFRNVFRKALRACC
Chain of α1A-adrenergic (P43140 whole entry): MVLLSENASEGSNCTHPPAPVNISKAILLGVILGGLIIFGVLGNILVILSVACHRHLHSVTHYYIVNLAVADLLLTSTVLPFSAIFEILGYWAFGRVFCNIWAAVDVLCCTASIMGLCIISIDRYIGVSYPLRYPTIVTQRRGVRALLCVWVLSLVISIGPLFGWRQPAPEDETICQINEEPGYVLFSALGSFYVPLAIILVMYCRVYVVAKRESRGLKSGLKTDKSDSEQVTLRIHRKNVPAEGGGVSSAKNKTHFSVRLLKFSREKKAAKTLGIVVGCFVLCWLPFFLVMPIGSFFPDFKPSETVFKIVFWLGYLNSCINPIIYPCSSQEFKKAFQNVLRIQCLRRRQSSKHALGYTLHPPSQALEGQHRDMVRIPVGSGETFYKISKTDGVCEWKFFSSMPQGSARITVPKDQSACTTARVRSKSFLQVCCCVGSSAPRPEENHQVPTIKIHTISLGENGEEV
Chain of 5-HT1B (P28564 whole entry): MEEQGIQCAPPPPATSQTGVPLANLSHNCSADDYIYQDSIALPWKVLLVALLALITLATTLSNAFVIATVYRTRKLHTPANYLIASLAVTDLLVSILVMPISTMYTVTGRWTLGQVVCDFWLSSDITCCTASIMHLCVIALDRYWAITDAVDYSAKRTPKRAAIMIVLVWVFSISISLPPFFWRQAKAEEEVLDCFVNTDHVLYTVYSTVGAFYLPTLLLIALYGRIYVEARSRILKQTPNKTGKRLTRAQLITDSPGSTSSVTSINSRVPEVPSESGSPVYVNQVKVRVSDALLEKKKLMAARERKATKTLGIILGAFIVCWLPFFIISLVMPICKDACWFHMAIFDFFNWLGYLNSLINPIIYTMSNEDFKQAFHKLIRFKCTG
Chain of Dopamine-D1 (P21728 whole entry): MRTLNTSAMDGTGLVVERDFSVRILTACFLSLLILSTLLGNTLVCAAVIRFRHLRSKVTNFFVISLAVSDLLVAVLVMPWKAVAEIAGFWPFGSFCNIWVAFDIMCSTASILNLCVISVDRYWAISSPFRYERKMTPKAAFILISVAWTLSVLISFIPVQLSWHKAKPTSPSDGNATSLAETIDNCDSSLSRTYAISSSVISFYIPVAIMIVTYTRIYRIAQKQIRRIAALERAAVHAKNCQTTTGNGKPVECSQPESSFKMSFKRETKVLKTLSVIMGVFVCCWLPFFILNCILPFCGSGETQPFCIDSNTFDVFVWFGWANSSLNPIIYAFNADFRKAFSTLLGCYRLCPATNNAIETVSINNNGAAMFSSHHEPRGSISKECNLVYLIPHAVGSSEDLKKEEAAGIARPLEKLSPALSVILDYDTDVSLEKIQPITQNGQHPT
Chain of κ-opiate (P34975 whole entry): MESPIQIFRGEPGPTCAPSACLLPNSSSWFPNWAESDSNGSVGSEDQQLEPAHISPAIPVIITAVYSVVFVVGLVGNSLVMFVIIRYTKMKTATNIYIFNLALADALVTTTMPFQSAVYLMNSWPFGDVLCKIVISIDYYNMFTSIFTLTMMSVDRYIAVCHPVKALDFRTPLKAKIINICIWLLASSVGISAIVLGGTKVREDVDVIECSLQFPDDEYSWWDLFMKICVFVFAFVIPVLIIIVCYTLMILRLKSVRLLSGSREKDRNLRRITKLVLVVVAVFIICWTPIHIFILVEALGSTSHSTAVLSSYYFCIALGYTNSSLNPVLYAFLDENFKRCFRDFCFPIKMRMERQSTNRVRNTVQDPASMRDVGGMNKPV

Take `C[N+]1([O-])CCN(c2cccc3[nH]c(=O)oc23)CC1` [N-oxide of SLV308, N-Oxide of SLV308]: the pKi on Dopamine-D2 was under 6.00; at μ-opiate, under 6.00; on Dopamine-D4 it was 6.89; at Dopamine-D1, under 6.00; at κ-opiate it was under 6.00; on 5-HT2C it was under 6.00. Also, the pKi is 6.20 at α1A-adrenergic and under 6.00 at 5-HT1B. On Dopamine-D2 (potency ratio), the “Factor by which dopamine-D2 receptor affinities differ (N-oxide vs SLV308)” value is listed as at least 100. In addition, the “Plasma levels of the N-oxide relative to SLV308 (in words)” value in data set [1] is listed as “approximately equal”. Further, the “Factor by which affinities for dopamine-D4 receptors differ (N-oxide vs SLV308)” value on Dopamine-D4 (potency ratio) came to 10. In addition, in data set [2], the pEC50 was 7.30. Besides, the “Human dopamine-D3 receptor intrinsic activity (α)” value in [2] was found to be 0.60. In [2], this compound showed a Kb of over 10 µM. Further, the “In vitro activity (in words)” value in [3] was “virtually inactive”.

By pKi is commonly meant the Ki on a negative log10 scale, so that one unit is a factor of ten. Low readings indicate a high Ki, high ones a low Ki. The pEC50 is the EC50 on a negative log10 scale, so that one unit is a factor of ten. High values mean a small EC50, low ones a large EC50.

(Values after US7750013B2, “N-oxides as prodrugs of piperazine and piperidine derivatives” (Solvay Pharmaceuticals, B.V., priority 2005, dated 2010).)
